Test results: paper doi:10.1101/2025.11.04.686469, “Discovery of Host-Directed Small Molecules with Broad Anti-Leishmanial Efficacy” (bioRxiv, 2025)
Where two headings read alike, the source gives them in different places.

Columns and labels:
lysozyme = target: T1, lysozyme (Homo sapiens, UniProt P61626); assay: Thermal proteome profiling in Leishmania infected macrophage lysate; assay type: binding; conditions: ligand 100 μM
T1 construct: endogenous in cells; host or cells: THP-1 cells differentiated with PMA and infected with L. mexicana promastigotes; cell lysate
T1 sequence (P61626 19-148): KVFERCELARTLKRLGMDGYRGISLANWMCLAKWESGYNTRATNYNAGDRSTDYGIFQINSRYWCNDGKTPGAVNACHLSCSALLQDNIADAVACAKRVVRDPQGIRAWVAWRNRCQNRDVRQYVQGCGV
Method: To generate cell lysate, ten million THP-1 cells were plated overnight in a 10cm dish, then differentiated with 150 nM phorbol 12-myristate 13-acetate (PMA) for 72 hours. The resulting macrophages were infected with L. mexicana promastigotes at a multiplicity of infection of 10 and incubated for 18 hours. After infection, cells were washed three times with PBS to remove extracellular promastigotes. Cells were then collected by scraping and pelleted with centrifugation. The cell pellet was resuspended in phosphate buffered saline and subjected to five freeze-thaw cycles. Samples were centrifuged 14,000g x 10 minutes to remove cellular debris. Protein concentration of supernatant was determined by BCA assay and cell lysate was stored at −80 °C until further use.
The cell lysate was divided into two portions. One portion was spiked with the 197 ligand in DMSO to generate the with ligand sample; and the other portion was spiked with DMSO to generate the without ligand sample. The final concentration of […] in the with ligand sample was 100 μM, and both the without and with ligand samples contained 1% DMSO. The with and without samples were each subjected five replicate one-pot TPP analyses like that previously described.[20–22] […]

[1] = system: extracellular L. mexicana promastigotes; assay: Effect of compounds on promastigote viability (resazurin assay); assay type: cell-based, Leishmania mexicana
Method: The effect of compounds on extracellular promastigotes was evaluated using a resazurin-based assay as described previously. In short, late log phase Leishmania promastigotes were seeded in a 96 well plate at 1 x 10^5 parasites per well and treated with drugs (0.5 – 200 μM) for 72 hours at 25°C. Ten microliters of resazurin (0.02% w/v) were added to the treated parasites to achieve a final concentration of 0.002% w/v and incubated for 24 hours. Viability of the promastigotes was assessed by fluorescence (excitation 544 nm, emission 590 nm, SpectraMax M2, Molecular Devices).

[2] = system: intracellular L. mexicana amastigotes; assay: microbe, parasite or virus in culture; assay type: cell-based, Leishmania mexicana; conditions: bone marrow derived macrophages, Giemsa staining
Method: (§1) Bone marrow derived macrophages (BMDMs) were isolated from BALB/c mice and cultured as previously described. Briefly, bone marrow was harvested from long bones of mice and the isolated cells were seeded at a concentration of 2 x 10^6 cells/mL in petri dishes with RPMI media supplemented with 10% FBS, 1% Penn-Strep and 10% L929 conditioned media (LCM). Completely differentiated BMDMs are obtained after 7 days of culture with media change every 2 days. Harvested cells were seeded onto 10 mm glass cover slips at 5 x 10^5 cells/ well of a 24 well plate in DMEM media (without LCM) and allowed to adhere overnight. BMDM cells are then infected overnight with LV82 L. donovani or L. mexicana (NR-51210) at a multiplicity of infection of 10. After infection, cells were washed three times with fresh media to remove extracellular promastigotes and treated with compounds for a 72-hour incubation. BMDM cells were then washed with phosphate buffered saline, fixed with ice-cold methanol, and stained with Giemsa (5% v/v in water). The cover slips with stained cells are mounted onto glass slides and imaged on EVOS XL (100X, Thermo Fisher Scientific). Leishmania amastigotes per 100 macrophages were determined in a blinded manner.

[3] = system: intracellular L. donovani amastigotes; assay: Image-based (Giemsa staining) evaluation of intracellular anti-leishmanial activity in bone marrow derived macrophages; assay type: cell-based, Leishmania donovani; conditions: Leishmania donovani, Macrophage
Method: as §1, with “Briefly, bone marrow was harvested from long bones of mice and the isolated cells were seeded at a concentration of 2 x 10^6 cells/mL in petri dishes with RPMI media supplemented with 10% FBS, 1% Penn-Strep and 10% L929 conditioned media (LCM).” left out, “BMDM cells are then infected overnight with LV82 L. donovani or L. mexicana (NR-51210) at a multiplicity of infection of 10.” left out

Question: O=C(CNCc1cccc(F)c1)Nc1ccc(-n2cc(C(F)(F)F)nc2-c2ccc(-c3ccc(C(F)(F)F)cc3)cc2)cc1 [Compound 197] was tested. Which “TPP z-score for lysozyme” value (lysozyme) did it give?
Answer: The value was 4.32.

Question: What about the “effect on L. mexicana extracellular promastigote viability” value [1] of the same compound?
Answer: The value was “no effect”.

Question: And the MIC50 ([1]; Leishmania mexicana, 72-hour incubation)?
Answer: Its MIC50 is over 200 µM.

Question: And the IC50 ([2]; Leishmania mexicana, Macrophage)?
Answer: The IC50 was under 2000 nM.

Question: And the IC50 [2]?
Answer: Its IC50 is 1700 nM.

Question: What about the IC50 ([3]; 72 h, Giemsa staining, 72-hour incubation, read-out: Intracellular L. donovani amastigotes IC50) of the same compound?
Answer: The IC50 was 1100 nM.

Question: What about the IC50 ([3]; Giemsa staining (Table 3), read-out: L. donovani Intracellular amastigotes IC50) of the same compound?
Answer: Its IC50 is under 2000 nM.
